# Laboratory results published in patent US20250236611A1, “PYRAZOLE COMPOUNDS AND USES THEREOF” (ALCON INC., priority 2021, published 2025).
# Tests used:
# Type in all cases: biochemical
# Conditions in all cases: 10 nM JAK enzyme, 800 nM Abl peptide, room temperature 75 min
# JAK1 = JAK1 (Homo sapiens, UniProt P23458); assay: JAK assay (KINASE-GLO luminescent kinase assay), JAK1
# Method: (§1) All compounds were initially prepared as 10 mM stocks in anhydrous dimethylsulfoxide (DMSO). A 20 μL aliquot of the 10 mM solutions was transferred to individual wells in column 1 of a 96-well polypropylene microtiter plate (Corning #3363) and diluted with DMSO to give a final compound concentration of 4 mM. Test compounds were then serially diluted 1:5 in DMSO for an 11-point concentration response and further diluted in the assay buffer bringing all compound concentrations to a final range of 100 μM to 10 pM in 2.5% DMSO. The assay was performed in white 96-well, flat-bottom, half-area, non-binding assay plate (Corning #3642) in assay buffer consisting of 20 mM HEPES (pH 7.5), 10 mM MgCl2*6H2O, 100 μM sodium orthovanadate, 0.05% CHAPS and 0.1% bovine serum albumin. A 10 μL aliquot of compound from each well of the intermediate dilution plate and 20 μL of a 2×JAK substrate/enzyme solution containing acceptor substrate (800 nM Abl peptide), JAK enzyme (10 nM JAK1, JAK2, JAK3, or TYK2), and 1,4-Dithiothreitol (DTT, 2 μM) were added to all wells. The reaction was initiated by the addition of 10 μL of 4× stock solution ATP (2 μM). Reactions were thoroughly mixed manually, covered and allowed to incubate at room temperature for 75 min. Protein kinase activity was quantitated using Promega's KINASE-GLO™ luminescent Kinase Assay Kit according to the manufacturer's directions. ATP concentrations remaining in Test wells following the termination of the enzymatic reaction were compared against control wells containing equivalent amounts of DMSO containing no inhibitor (CTRL). […] Percent of Control (POC) values were determined for each concentration of compound tested according to the equation:
# (§2) [formula] • IC50 values were calculated using the following 4-parameter logistic curve-fitting algorithm:
# (§3) [formula] • IC50 values were converted to Ki values using the Cheng-Prusoff Equation: […]
# JAK2 = JAK2 (Homo sapiens, UniProt O60674); assay: JAK assay (KINASE-GLO luminescent kinase assay), JAK2
# Sequence of JAK2 (O60674 whole entry): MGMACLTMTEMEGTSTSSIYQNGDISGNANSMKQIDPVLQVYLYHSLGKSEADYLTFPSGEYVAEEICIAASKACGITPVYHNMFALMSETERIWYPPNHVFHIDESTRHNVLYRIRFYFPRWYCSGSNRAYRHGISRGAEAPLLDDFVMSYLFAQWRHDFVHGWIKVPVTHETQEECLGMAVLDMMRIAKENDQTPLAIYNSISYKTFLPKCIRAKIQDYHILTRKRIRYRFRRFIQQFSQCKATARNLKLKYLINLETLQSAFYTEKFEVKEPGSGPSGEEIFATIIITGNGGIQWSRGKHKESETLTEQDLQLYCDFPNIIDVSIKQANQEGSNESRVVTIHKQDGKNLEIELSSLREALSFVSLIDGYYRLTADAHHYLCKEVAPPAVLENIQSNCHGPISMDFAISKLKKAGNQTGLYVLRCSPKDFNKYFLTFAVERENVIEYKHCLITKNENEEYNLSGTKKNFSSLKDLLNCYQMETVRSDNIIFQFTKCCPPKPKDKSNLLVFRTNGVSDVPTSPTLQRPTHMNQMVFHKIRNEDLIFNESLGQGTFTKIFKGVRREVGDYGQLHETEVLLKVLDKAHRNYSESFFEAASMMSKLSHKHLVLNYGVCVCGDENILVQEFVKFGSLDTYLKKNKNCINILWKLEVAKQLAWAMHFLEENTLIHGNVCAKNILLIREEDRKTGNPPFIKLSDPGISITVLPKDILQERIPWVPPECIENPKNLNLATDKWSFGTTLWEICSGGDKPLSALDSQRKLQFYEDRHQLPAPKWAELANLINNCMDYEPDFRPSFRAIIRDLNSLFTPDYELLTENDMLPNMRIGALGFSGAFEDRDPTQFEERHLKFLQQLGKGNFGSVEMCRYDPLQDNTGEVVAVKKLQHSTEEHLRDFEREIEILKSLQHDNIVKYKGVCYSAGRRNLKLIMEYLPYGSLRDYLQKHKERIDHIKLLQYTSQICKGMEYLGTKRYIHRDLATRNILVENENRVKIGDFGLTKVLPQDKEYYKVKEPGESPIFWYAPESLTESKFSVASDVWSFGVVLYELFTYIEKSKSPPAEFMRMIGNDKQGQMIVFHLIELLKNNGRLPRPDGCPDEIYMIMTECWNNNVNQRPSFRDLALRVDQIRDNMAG
# Method: as §1, §2, §3
# JAK3 = target: T1, JAK3 (Homo sapiens, UniProt P52333); assay: JAK assay (KINASE-GLO luminescent kinase assay), JAK3
# T1 sequence (P52333 1-1124): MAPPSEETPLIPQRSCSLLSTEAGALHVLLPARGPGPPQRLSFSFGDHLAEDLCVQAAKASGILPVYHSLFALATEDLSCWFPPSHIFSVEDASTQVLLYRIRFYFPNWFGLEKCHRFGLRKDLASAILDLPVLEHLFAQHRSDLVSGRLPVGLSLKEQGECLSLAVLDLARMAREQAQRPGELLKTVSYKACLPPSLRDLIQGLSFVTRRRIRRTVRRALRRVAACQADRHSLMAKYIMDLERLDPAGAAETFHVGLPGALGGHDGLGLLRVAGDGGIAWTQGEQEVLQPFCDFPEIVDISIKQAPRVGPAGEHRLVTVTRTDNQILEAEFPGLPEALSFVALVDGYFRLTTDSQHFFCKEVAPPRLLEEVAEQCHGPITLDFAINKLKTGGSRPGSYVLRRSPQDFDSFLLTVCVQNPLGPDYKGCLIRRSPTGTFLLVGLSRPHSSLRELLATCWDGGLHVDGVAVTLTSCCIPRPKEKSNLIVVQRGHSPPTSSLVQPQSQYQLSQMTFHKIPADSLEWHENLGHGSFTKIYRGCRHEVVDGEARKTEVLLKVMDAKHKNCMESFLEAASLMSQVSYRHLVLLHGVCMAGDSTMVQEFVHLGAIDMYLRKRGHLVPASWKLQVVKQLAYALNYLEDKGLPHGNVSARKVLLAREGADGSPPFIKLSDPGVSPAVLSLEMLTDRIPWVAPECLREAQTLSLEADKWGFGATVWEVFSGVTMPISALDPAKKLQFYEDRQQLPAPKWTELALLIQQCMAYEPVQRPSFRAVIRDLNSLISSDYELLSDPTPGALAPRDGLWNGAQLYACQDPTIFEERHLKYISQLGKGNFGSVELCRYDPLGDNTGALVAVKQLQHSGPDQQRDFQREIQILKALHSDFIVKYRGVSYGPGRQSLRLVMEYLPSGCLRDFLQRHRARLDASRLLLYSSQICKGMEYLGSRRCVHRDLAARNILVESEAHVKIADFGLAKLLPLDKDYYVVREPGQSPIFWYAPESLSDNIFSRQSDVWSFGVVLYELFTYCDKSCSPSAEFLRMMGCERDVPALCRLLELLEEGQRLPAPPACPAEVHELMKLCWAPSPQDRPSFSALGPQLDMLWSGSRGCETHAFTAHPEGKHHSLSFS
# Method: as §1, §2, §3
# TYK2 = TYK2 (Homo sapiens, UniProt P29597); assay: JAK assay (KINASE-GLO luminescent kinase assay), TYK2
# Sequence of TYK2 (P29597 whole entry): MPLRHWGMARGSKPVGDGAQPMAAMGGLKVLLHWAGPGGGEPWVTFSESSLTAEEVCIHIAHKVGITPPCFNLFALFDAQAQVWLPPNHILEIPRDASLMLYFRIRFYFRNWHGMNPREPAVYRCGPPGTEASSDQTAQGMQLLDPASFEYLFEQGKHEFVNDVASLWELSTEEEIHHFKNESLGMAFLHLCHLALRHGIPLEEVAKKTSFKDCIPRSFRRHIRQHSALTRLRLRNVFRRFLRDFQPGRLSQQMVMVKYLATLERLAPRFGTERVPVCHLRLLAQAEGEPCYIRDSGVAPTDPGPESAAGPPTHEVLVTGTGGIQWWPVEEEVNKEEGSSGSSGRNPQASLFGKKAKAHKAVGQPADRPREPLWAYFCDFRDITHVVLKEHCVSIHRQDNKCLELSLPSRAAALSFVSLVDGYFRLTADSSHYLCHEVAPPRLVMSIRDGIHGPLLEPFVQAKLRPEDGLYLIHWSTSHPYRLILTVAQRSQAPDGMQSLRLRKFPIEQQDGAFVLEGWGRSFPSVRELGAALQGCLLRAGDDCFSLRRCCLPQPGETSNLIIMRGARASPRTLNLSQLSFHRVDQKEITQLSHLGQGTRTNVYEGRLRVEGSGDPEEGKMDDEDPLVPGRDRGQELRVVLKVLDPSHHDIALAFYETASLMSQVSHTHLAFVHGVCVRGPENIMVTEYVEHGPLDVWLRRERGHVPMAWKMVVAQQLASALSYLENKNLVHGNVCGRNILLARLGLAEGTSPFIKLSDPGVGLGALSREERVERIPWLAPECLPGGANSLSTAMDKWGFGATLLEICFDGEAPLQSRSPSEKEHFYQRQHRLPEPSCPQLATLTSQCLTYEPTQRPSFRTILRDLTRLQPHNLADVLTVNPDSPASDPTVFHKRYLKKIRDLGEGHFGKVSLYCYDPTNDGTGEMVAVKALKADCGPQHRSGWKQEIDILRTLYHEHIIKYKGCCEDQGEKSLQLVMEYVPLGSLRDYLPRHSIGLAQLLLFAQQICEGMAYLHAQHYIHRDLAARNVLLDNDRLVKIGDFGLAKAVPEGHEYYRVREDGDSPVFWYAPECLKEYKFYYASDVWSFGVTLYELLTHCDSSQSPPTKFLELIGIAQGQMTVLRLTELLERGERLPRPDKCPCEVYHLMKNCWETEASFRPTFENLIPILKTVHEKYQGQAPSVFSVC
# Method: as §1, with “A 20 μL aliquot of the 10 mM solutions was transferred to individual wells in column 1 of a 96-well polypropylene microtiter plate (Corning #3363) and diluted with DMSO to give a final compound concentration of 4 mM.” left out
# as §2, §3
# Sequence of JAK1 (P23458 whole entry): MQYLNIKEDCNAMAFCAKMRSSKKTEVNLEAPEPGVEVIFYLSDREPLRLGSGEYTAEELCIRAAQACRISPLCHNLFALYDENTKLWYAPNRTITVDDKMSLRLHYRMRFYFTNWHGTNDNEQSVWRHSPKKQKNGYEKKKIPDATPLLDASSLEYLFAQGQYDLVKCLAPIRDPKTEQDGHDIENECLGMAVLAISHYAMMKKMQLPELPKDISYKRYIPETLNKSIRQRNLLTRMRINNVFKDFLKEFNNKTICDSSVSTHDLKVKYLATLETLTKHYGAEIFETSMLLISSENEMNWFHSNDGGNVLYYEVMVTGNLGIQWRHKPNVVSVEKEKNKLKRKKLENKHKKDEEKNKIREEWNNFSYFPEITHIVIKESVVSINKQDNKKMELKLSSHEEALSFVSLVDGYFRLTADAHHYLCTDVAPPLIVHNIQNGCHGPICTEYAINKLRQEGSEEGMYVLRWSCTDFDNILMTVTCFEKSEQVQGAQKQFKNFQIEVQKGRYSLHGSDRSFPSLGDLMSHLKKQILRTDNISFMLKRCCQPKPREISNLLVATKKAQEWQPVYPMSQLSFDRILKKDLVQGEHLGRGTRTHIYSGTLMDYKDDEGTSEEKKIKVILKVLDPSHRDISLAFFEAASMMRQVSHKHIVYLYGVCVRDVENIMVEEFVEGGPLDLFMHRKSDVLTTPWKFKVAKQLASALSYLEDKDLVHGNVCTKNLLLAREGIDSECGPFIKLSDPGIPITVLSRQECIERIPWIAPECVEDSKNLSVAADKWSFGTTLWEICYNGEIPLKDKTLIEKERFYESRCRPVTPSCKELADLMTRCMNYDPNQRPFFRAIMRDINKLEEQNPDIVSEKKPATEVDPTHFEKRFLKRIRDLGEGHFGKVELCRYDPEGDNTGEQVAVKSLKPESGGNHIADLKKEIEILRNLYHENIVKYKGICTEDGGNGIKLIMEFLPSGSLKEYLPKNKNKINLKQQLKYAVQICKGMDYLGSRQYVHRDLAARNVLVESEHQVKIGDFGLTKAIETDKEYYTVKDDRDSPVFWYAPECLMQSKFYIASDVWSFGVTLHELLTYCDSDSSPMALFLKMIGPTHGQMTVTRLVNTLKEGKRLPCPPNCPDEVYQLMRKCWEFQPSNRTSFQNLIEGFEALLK
compound,measurement,setting,value
Cc1cc(Nc2ncc(C)c(-c3cnn(CC4(CF)CC4)c3)n2)ccc1N1CCN(C)CC1 [CN1CCN(CC1)C2═C(C)C═C(NC3═NC],IC50,JAK1,< 100 nM
same,IC50,JAK2,< 10 nM
same,IC50,JAK3,< 10 nM
same,IC50,TYK2,< 10 nM
CC(C)(C)OC(=O)NCc1cccc(Nc2ncc(Cl)c(-c3cnn(CC4(CF)CC4)c3)n2)c1 [CC(C)(C)OC(═O)NCC1═CC═CC],IC50,JAK1,157 nM
same,IC50,JAK2,< 100 nM
same,IC50,JAK3,< 10 nM
same,IC50,TYK2,< 100 nM
Cc1cnc(Nc2ccc(N3CCN(C(=O)OC(C)(C)C)CC3)cc2)nc1-c1cnn(CC2(CF)CC2)c1 [CC1═C(N═C(NC2═CC═C(C═C2)N3CCN],IC50,JAK1,< 1000 nM
same,IC50,JAK2,< 10 nM
same,IC50,JAK3,< 100 nM
same,IC50,TYK2,< 100 nM
COCc1cc(Nc2ncc(C)c(-c3cnn(CC4(CF)CC4)c3)n2)sn1 [COCC1═NSC(═C1)NC2═NC(═C],IC50,JAK1,< 1000 nM
same,IC50,JAK2,< 100 nM
same,IC50,JAK3,< 1000 nM
same,IC50,TYK2,< 1000 nM
Cc1cnc(Nc2ccnc(CN(C)C)c2)nc1-c1cnn(CC2(CF)CCC2)c1 [CN(C)CC1═CC(═CC═N1)NC2═NC(═C],IC50,JAK1,< 1000 nM
same,IC50,JAK2,< 10 nM
same,IC50,JAK3,< 100 nM
same,IC50,TYK2,< 100 nM
N#CCCn1cc(-c2nc(Nc3ccc(N4CCOCC4)c(F)c3)ncc2Cl)cn1 [FC1═CC(═CC═C1N2CCOCC2)NC3═NC(═C],IC50,JAK1,< 10 nM
same,IC50,JAK2,< 10 nM
same,IC50,JAK3,< 10 nM
same,IC50,TYK2,< 10 nM
CNC(=O)c1cccc(Nc2ncc(Cl)c(-c3cnn(CC4(NC)CC4)c3)n2)c1 [CNC(═O)C1═CC═CC(═C1)NC2═NC],IC50,JAK1,< 1000 nM
same,IC50,JAK2,< 10 nM
same,IC50,JAK3,< 100 nM
same,IC50,TYK2,< 1000 nM
Cc1cc(Nc2ncc(C)c(-c3cnn(CC4(CF)CCC4)c3)n2)sn1 [CC1═NSC(═C1)NC2═NC═C(C)C],IC50,JAK1,< 10 nM
same,IC50,JAK2,< 10 nM
same,IC50,JAK3,< 10 nM
same,IC50,TYK2,< 10 nM
Cc1cnc(Nc2ccc(CCN(C)C)cc2)nc1-c1cnn(CC2(CF)CC2)c1 [CN(C)CCC1═CC═C(NC2═NC(═C],IC50,JAK1,< 1000 nM
same,IC50,JAK2,< 10 nM
same,IC50,JAK3,< 100 nM
same,IC50,TYK2,< 100 nM
Cc1cnc(Nc2ccc(C(=O)N(C)C)cc2)nc1-c1cnn(CC2(CF)CC2)c1 [CN(C)C(═O)C1═CC═C(NC2═NC(═C],IC50,JAK1,< 100 nM
same,IC50,JAK2,< 10 nM
same,IC50,JAK3,< 100 nM
same,IC50,TYK2,< 100 nM
Cc1cnc(Nc2cccc3c2CNC3=O)nc1-c1cnn(CC2(Cl)CC2)c1 [CC1═C(N═C(NC2═C3CNC],IC50,JAK1,< 100000 nM
same,IC50,JAK2,< 100 nM
same,IC50,JAK3,< 1000 nM
same,IC50,TYK2,< 100000 nM
Cn1ccc(Nc2ncc(Cl)c(-c3cnn(CCC#N)c3)n2)n1 [C[N]1C═CC(═N1)NC2═NC(═C],IC50,JAK1,< 1000 nM
same,IC50,JAK2,< 10 nM
same,IC50,JAK3,< 1000 nM
same,IC50,TYK2,< 1000 nM
COCCOCc1cc(Nc2ncc(C)c(-c3cnn(CC4(CF)CC4)c3)n2)sn1 [COCCOCC1═NSC(═C1)NC2═NC(═C],IC50,JAK1,< 1000 nM
same,IC50,JAK2,< 1000 nM
same,IC50,JAK3,< 1000 nM
same,IC50,TYK2,< 1000 nM
CCc1cnc(Nc2cc(C)ns2)nc1-c1cnn(CC2(Cl)CC2)c1 [CCC1═C(N═C(NC2═CC],IC50,JAK1,< 100 nM
same,IC50,JAK2,< 10 nM
same,IC50,JAK3,< 10 nM
same,IC50,TYK2,< 100 nM
Cc1cnc(Nc2ccc(CO)c(CO)c2)nc1-c1cnn(CC2(CF)CC2)c1 [CC1═C(N═C(NC2═CC═C(CO)C],IC50,JAK1,< 100 nM
same,IC50,JAK2,< 10 nM
same,IC50,JAK3,< 100 nM
same,IC50,TYK2,< 10 nM
COc1cnc(Nc2ccc(N3CCN(C)CC3)cc2)nc1-c1cnn(CC2(Cl)CC2)c1 [COC1═C(N═C(NC2═CC═C],IC50,JAK1,< 100 nM
same,IC50,JAK2,< 10 nM
same,IC50,JAK3,< 10 nM
same,IC50,TYK2,< 100 nM
Cc1cnc(Nc2ccc(N3CC4(COC4)C3)cc2)nc1-c1cnn(CC2(CF)CC2)c1 [CC1═C(N═C(NC2═CC(═C(C═C2)N3CC4],IC50,JAK1,< 100 nM
same,IC50,JAK2,< 10 nM
same,IC50,JAK3,< 10 nM
same,IC50,TYK2,< 10 nM
Cc1cnc(Nc2ccc(OCCN(C)C)cc2)nc1-c1cnn(CC2(CF)CC2)c1 [(C)CCOC1═CC═C(NC2═NC],IC50,JAK1,< 100 nM
same,IC50,JAK2,< 10 nM
same,IC50,JAK3,< 100 nM
same,IC50,TYK2,< 100 nM
Cc1cnc(Nc2cccc(C(N)=O)c2)nc1-c1cnn(CC2(CF)CC2)c1 [CC1═C(N═C(NC2═CC(═CC═C2)C],IC50,JAK1,< 100 nM
same,IC50,JAK2,< 10 nM
same,IC50,JAK3,< 100 nM
same,IC50,TYK2,< 10 nM
N#CCCn1cc(-c2nc(Nc3ccc(C(=O)O)cc3)ncc2Cl)cn1 [OC(═O)C1═CC═C(NC2═NC(═C],IC50,JAK1,< 10 nM
same,IC50,JAK2,< 10 nM
same,IC50,JAK3,< 100 nM
same,IC50,TYK2,< 10 nM
N#CCCn1cc(-c2nc(Nc3ccc(N4CCOCC4)cc3F)ncc2Cl)cn1 [FC1═CC(═CC═C1NC2═NC(═C],IC50,JAK1,< 1000 nM
same,IC50,JAK2,< 10 nM
same,IC50,JAK3,< 100 nM
same,IC50,TYK2,< 100 nM
Cc1cc(Nc2ncc(C)c(-c3cnn(CC4(CN(C)C)CC4)c3)n2)sn1 [CN(C)CC1(CC1)C[N]2C═C(C═N2)C3═C],IC50,JAK1,< 100 nM
same,IC50,JAK2,< 10 nM
same,IC50,JAK3,< 100 nM
same,IC50,TYK2,< 100 nM
Cc1cnc(Nc2cccc3c2CN(C)C3)nc1-c1cnn(CC2(Cl)CC2)c1 [CN1CC2═CC═CC(═C2C1)NC3═NC(═C],IC50,JAK1,< 100000 nM
same,IC50,JAK2,< 1000 nM
same,IC50,JAK3,< 100000 nM
Cc1cnc(Nc2ccns2)nc1-c1cnn(CC2(CF)CC2)c1 [CC1═C(N═C(NC2═CC═NS2)N═C1)C3═C[N]],IC50,JAK2,< 10 nM
Cc1ccc(S(=O)(=O)Nc2ncc(Cl)c(-c3cnn(CCC#N)c3)n2)cc1 [CC1═CC═C(C═C1)[S](═O)(═O)NC2═NC],IC50,JAK2,< 100000 nM
same,IC50,TYK2,< 100000 nM
N#CCCn1cc(-c2nc(N(C(=O)c3ccccc3)C(=O)c3ccccc3)ncc2Cl)cn1 [ClC1═C(N═C(N═C1)N(C(═O)C2═CC═CC═C2)C],IC50,JAK2,< 100000 nM
Cc1cnc(NCCN2CCOCC2)nc1-c1cnn(CCC#N)c1 [CC1═C(N═C(NCCN2CCOCC2)N═C1)C3═C[N]],IC50,JAK1,< 100000 nM
same,IC50,JAK2,< 100000 nM
same,IC50,JAK3,> 50000 nM
Cc1cnc(Nc2cccc(C(N)=O)c2)nc1-c1cnn(CC2(CF)CC2)c1 [CC1═C(N═C(NC2═CC═CC(═C2)C],IC50,JAK2,< 10 nM
same,IC50,JAK3,< 100 nM
